According to patent US20190255042A1, “APPLICATION OF HEDGEHOG PATHWAY INHIBITOR IN TREATING FIBROSIS DISEASES” (IMPACT THERAPEUTICS, INC, priority 2016, published 2019):

System: unilateral pulmonary fibrosis model in SD rats
Experiment: Therapeutic efficacy in unilateral pulmonary fibrosis model in SD rats (bleomycin, dosing from D8)
Assay type: in vivo
Set-up: Evaluation of injury and inflammatory lesions of left lung: Fibrotic lesion edge / Evaluation of injury and inflammatory lesions of left lung: Fibrosis lesion: scale not given here
Settings: for Expression of Type I collagen (%) / Expression of α-SMA protein (%): left lung immunohistochemistry; for Expression of Type I collagen (%) / Expression of α-SMA protein (%) / Evaluation of injury and inflammatory lesions of left lung: Fibrosis lesion / Evaluation of injury and inflammatory lesions of left lung: Fibrotic lesion edge / Fibrosis area (left pulmonary) / Fibrosis Score 1-3 (%) / Fibrosis Score 4-8 (%) / Fibrosis score (Ashcraft) / Volume of left lung / Weight of left lung: mean ± sem; for Evaluation of injury and inflammatory lesions of left lung: Fibrosis lesion / Evaluation of injury and inflammatory lesions of left lung: Fibrotic lesion edge: HE score; for Fibrosis area (left pulmonary): Masson trichrome
Method: On the modeling day, rats were anesthetized and exposed to trachea. Bleomycin was injected into left trachea of each group (dosage: 3 mg/kg, volume: 1.0 ml/kg). Oral administration was performed on Day 8 after modeling, once a day. On Day 22, according to the KCI animal euthanasia SOP, animals in each group were given an overdose of sodium barbiturate and sacrificed under intraperitoneal anesthesia, the left lung was taken, the weight and volume of the left lung were measured, then fixed by formalin, the bronchioles were stained with HE, Masson trichrome. The bronchioles, final bronchiole and small pulmonary artery injury and inflammation invasion were evaluated by semi-quantitative score, and pulmonary fibrosis was evaluated by Ashcraft semi-quantitative score. Immunohistochemical staining of α-SMA, Type I collagen (Collagen-I) were performed at the same time, a full scan was performed by Hamamatsu NanoZoomer Digital Pathology (S210), the α-SMA positive area was semiquantitatively calculated from the unit area of the whole sheelt in pulmonary fibrosis foci, and the positive staining area of type-I collagent per unit of area was calculated.

[1] = 5 mpk oral D8 to D22 after modeling
[2] = 15 mpk oral D8 to D22 after modeling
[3] = 30 mpk oral D8 to D22 after modeling

SMILES: CC(C)c1cnc(-c2cc(NC(=O)c3ccc(N4C[C@@H](C)N(C)[C@@H](C)C4)cc3C(F)(F)F)ccc2Cl)[nH]1 [Comp A, N-(3-(5-isopropyl-1H-imidazol-2-yl)-4-chlorophenyl)-2-trifluoromethyl-4-((3S,5R)-3,4,5-trimethylpiperazin-1-yl)benzamide]
- percentage of α-SMA protein compared with model group (30 mg/kg/d): significantly decreased
- percentage of Type-I collagen protein (30 mg/kg/d and 15 mg/kg/d, no statistical significance): decreased
- dose dependence of α-SMA protein expression (5, 15, 30 mg/kg/d): significant dose dependence
- Expression of Type I collagen (%) (5 mpk oral D8 to D22, n = 5): 18.76 ± 2.54%
- Expression of α-SMA protein (%) (5 mpk oral D8 to D22, n = 5): 8.06 ± 0.59%
- Evaluation of injury and inflammatory lesions of left lung: Fibrosis lesion [1]: 6.75 ± 0.40
- Evaluation of injury and inflammatory lesions of left lung: Fibrotic lesion edge [1]: 4.90 ± 0.15
- Fibrosis area (left pulmonary) [1]: 70.61 ± 5.23
- Fibrosis Score 1-3 (%) [1]: 88.00 ± 5.83%
- Fibrosis Score 4-8 (%) [1]: 12.00 ± 5.83%
- Fibrosis score (Ashcraft) [1]: 2.44 ± 0.11
- Volume of left lung [1]: 1.34 ± 0.14 cm^3
- Weight of left lung [1]: 1.60 ± 0.33 g
- damage and inflammatory response of terminal bronchioles within fibrosis lesions and pulmonary small artery compared with model group (14 consecutive days, BIBF1120 100, Compound A 5, 15, 30, GDC0449 50 mg/kg/d, p<0.001): significantly reduced
- Expression of Type I collagen (%) (15 mpk oral D8 to D22, n = 7): 16.48 ± 0.93%
- Expression of α-SMA protein (%) (15 mpk oral D8 to D22, n = 7): 7.30 ± 0.84%
- Evaluation of injury and inflammatory lesions of left lung: Fibrosis lesion [2]: 6.89 ± 0.34
- Evaluation of injury and inflammatory lesions of left lung: Fibrotic lesion edge [2]: 4.82 ± 0.24
- Fibrosis area (left pulmonary) [2]: 71.16 ± 2.81
- Fibrosis Score 1-3 (%) [2]: 91.43 ± 1.43%
- Fibrosis Score 4-8 (%) [2]: 8.57± 1.43%
- Fibrosis score (Ashcraft) [2]: 2.44 ± 0.07
- Volume of left lung [2]: 1.41 ± 0.21 cm^3
- Weight of left lung [2]: 1.40 ± 0.21 g
- Expression of Type I collagen (%) (30 mpk oral D8 to D22, n = 7): 16.77 ± 2.03%
- Expression of α-SMA protein (%) (30 mpk oral D8 to D22, n = 7, **p<0.01 vs. Model group): 4.96 ± 0.26** %
- Evaluation of injury and inflammatory lesions of left lung: Fibrosis lesion [3]: 7.03 ± 0.18
- Evaluation of injury and inflammatory lesions of left lung: Fibrotic lesion edge [3]: 4.95 ± 0.20
- Fibrosis area (left pulmonary) [3]: 71.27 ± 3.21
- Fibrosis Score 1-3 (%) [3]: 84.29 ± 4.81%
- Fibrosis Score 4-8 (%) [3]: 15.71 ± 4.81%
- Fibrosis score (Ashcraft) [3]: 2.47 ± 0.16
- Volume of left lung [3]: 1.40 ± 0.09 cm^3
- Weight of left lung [3]: 1.44 ± 0.14 g
- degree of pulmonary fibrosis (Ashcraft score) compared with model group (BIBF1120 100, Compound A 5, 15, 30, GDC0449 50 mg/kg/d, p<0.01): significantly better
- amount of Type I collagen deposition in the fibrotic lesions compared with model group (BIBF1120 100 mpk, Compound A 5 mpk, GDC0449 50 mpk): no significant difference
